Active and inactive are the calls of the source. The rule behind the calls is not given here.
Assays:
[1] = Acute toxicity in Kunming male mouse assessed as Creatinine (CREA) level at 180 mg/kg, ip measured after 14 days (reference value: 12.4 micromol/L); assay type: organism-based; details: in vivo, 336 h, time 14 day
Mus musculus [2] = assay: Anti-pulmonary fibrotic activity against bleomycin-induced pulmonary fibrosis mouse model assessed as inhibition of Smad2 phosphorylation in lung tissue at 10 to 20 mg/kg, ip administered every alternative day for 8 to 21 days after modeling by immunohistochemical staining based assay; assay type: functional, organism-based; details: dose 10-20 mg/kg, time 8-21 day
[3] = AUMC(0 to infinity) in Sprague-Dawley rat at 50 mg/kg, po measured upto 4 hrs by UPLC-MS/MS analysis; assay type: ADME, organism-based; details: in vivo
Rattus norvegicus [4] = assay: Cz in Sprague-Dawley rat at 50 mg/kg, po measured upto 4 hrs by UPLC-MS/MS analysis; assay type: ADME, organism-based; details: in vivo
[5] = Clearance in Sprague-Dawley rat at 50 mg/kg, po measured upto 4 hrs by UPLC-MS/MS analysis; assay type: ADME, organism-based; details: in vivo
[6] = AUMC(0 to t) in Sprague-Dawley rat at 50 mg/kg, po measured upto 4 hrs by UPLC-MS/MS analysis; assay type: ADME, organism-based; details: in vivo
Rattus norvegicus [7] = assay: Cz in Sprague-Dawley rat at 50 mg/kg, iv measured upto 4 hrs by UPLC-MS/MS analysis; assay type: ADME, organism-based; details: in vivo
Mus musculus [8] = assay: Anti-fibrotic activity against bleomycin-induced pulmonary fibrosis mouse model assessed as increase in lung compliance at 10 to 20 mg/kg, ip administered every alternative day for 8 to 21 days after modeling; assay type: functional, organism-based; details: dose 10-20 mg/kg, time 8-21 day
[9] = VRT(0 to t) in Sprague-Dawley rat at 50 mg/kg, po measured upto 4 hrs by UPLC-MS/MS analysis; assay type: ADME, organism-based; details: in vivo
[10] = Acute toxicity in Kunming male mouse assessed as Total bilirubin (T-Bil) level at 180 mg/kg, ip measured after 14 days (reference value: 12.99 micromol/L); assay type: organism-based; details: in vivo, 336 h, time 14 day
[11] = molecular target: Transient receptor potential cation channel subfamily V member 1 (Mus musculus) (UniProt Q704Y3); assay: Thermal stabilization of TRPV1 in mouse NIH3T3 cells assessed as reduction in TRPV1 degradation at 60 degreeC measured after 30 mins by CETSA; assay type: cell-based; details: dose 1-50 µM
NIH3T3 [12] = assay: Inhibition of TGFbeta1-induced proliferation of mouse NIH3T3 cells assessed as colony formation at 10 uM measured after 7 to 14 days by Crystal violet staining based assay; assay type: functional, cell-based; details: time 7-14 day
[13] = molecular target: Transient receptor potential cation channel subfamily V member 1 (Homo sapiens) (UniProt Q8NER1); assay: Inhibition of TRPV1 (unknown origin) overexpressed in si-TRPV1-2 transfected HEK-293T cells assessed as decrease in TGFbeta-induced alpha-SMA expression at 10 uM measured after 48 hrs incubation by Western blotting analysis; assay type: cell-based
[14] = Acute toxicity in Kunming male mouse assessed as Urea level at 180 mg/kg, ip measured after 14 days (reference value: 6.54 mmol/L); assay type: organism-based; details: in vivo, 336 h, time 14 day
Mus musculus [15] = assay: Anti-pulmonary fibrotic activity against bleomycin induced pulmonary fibrosis mouse model assessed as reduction in alveolar structure at 10 to 20 mg/kg, ip administered every alternative day for 8 to 21 days after modeling; assay type: functional, organism-based; details: dose 10-20 mg/kg, time 8-21 day
NIH3T3 [16] = assay: Anti-fibrotic activity in mouse NIH3T3 cells assessed as inhibition of TGFbeta-induced total collagen production at 10 uM measured after 48 hrs by Sirius Red Collagen Detection Kit relative to control; assay type: functional
[17] = Acute toxicity in Kunming female mouse assessed as Urea level at 180 mg/kg, ip measured after 14 days (reference value: 5.74 mmol/L); assay type: organism-based; details: in vivo, 336 h, time 14 day
[18] = Acute toxicity in Kunming mouse assessed as organ lesions in lung at 180 mg/kg, ip measured after 14 days by H and E staining based assay; assay type: organism-based; details: in vivo, 336 h, time 14 day
[19] = VRT(0 to t) in Sprague-Dawley rat at 50 mg/kg, iv measured upto 4 hrs by UPLC-MS/MS analysis; assay type: ADME, organism-based; details: in vivo
[20] = VRT(0 to t) in Sprague-Dawley rat at 50 mg/kg, ip measured upto 4 hrs by UPLC-MS/MS analysis; assay type: ADME, organism-based; details: in vivo
[21] = MRT(0 to infinity) in Sprague-Dawley rat at 50 mg/kg, iv measured upto 4 hrs by UPLC-MS/MS analysis; assay type: ADME, organism-based; details: in vivo
NIH3T3 [22] = assay: Antifibrotic activity in mouse NIH3T3 cells assessed as decrease in TGFbeta-induced Collagen type 1 expression measured after 48 hrs incubation by Western blotting analysis; assay type: functional, cell-based; details: dose 1-10 µM
[23] = Cytotoxicity against mouse NIH3T3 cells assessed as survival rate at 10 uM measured after 24 hrs by CCK-8 assay relative to control; assay type: toxicity, cell-based; details: read-out: Survival

Chain of Transient receptor potential cation channel subfamily V member 1 (Homo sapiens) (Q8NER1 whole entry): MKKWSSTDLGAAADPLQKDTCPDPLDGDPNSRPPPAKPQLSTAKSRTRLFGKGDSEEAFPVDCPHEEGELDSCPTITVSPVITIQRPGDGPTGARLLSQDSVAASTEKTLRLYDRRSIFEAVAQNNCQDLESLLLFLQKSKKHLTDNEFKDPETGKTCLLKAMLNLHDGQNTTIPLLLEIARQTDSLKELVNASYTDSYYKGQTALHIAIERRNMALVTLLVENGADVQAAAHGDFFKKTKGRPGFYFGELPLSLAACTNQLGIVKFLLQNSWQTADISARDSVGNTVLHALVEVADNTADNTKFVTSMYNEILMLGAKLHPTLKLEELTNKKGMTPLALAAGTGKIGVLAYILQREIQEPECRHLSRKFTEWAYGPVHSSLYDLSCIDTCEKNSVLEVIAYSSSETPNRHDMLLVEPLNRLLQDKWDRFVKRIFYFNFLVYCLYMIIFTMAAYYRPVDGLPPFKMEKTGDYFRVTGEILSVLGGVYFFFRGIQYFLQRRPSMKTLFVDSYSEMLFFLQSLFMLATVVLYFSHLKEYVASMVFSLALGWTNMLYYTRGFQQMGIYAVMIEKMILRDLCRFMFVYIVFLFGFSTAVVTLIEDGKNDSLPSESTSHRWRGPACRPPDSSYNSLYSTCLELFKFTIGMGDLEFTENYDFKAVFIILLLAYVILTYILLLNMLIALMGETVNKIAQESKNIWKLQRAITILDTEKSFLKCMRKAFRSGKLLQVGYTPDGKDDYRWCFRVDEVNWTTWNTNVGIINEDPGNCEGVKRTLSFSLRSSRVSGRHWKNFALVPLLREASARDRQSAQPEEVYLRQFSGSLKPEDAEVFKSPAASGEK
Chain of Transient receptor potential cation channel subfamily V member 1 (Mus musculus) (Q704Y3 whole entry): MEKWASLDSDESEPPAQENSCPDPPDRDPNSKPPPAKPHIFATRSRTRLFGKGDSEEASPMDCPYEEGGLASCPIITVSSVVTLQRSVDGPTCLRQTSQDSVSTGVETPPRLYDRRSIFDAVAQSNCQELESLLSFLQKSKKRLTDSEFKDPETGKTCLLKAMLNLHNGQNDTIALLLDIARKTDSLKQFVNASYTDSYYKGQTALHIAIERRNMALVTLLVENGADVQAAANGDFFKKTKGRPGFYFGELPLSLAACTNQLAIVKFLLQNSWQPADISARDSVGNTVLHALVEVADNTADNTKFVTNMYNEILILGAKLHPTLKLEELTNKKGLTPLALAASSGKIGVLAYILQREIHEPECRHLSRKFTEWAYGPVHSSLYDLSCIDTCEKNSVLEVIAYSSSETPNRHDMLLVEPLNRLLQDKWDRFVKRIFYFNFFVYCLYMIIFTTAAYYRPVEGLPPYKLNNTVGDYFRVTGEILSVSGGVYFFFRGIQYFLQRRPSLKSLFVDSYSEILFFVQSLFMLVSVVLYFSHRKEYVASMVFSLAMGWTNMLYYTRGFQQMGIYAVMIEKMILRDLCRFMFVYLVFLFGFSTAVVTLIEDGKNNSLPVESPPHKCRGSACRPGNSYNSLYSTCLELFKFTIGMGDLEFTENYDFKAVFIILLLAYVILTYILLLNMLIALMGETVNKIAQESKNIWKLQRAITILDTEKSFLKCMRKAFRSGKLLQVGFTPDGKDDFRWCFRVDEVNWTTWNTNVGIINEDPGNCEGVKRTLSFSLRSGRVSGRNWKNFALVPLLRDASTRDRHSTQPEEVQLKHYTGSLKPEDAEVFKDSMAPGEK

Q: For `O=C(/C=C/c1ccc(O)c(O)c1)CCCCc1ccccc1`, which Activity [1] is on record?
A: 15.3 µmol/L

Q: And the Activity (Mus musculus [2])?
A: Active

Q: What about the AUMC [3] of the same molecule?
A: 138.748 ug/L.hr

Q: What about the Cz (Rattus norvegicus [4]) of the same molecule?
A: 2.54 µg/L

Q: And the CL [5]?
A: 197.26 L/h/kg

Q: What about the AUMCt [6] of the same molecule?
A: 121.11 ug/L.hr

Q: What about the Cz (Rattus norvegicus [7]) of the same molecule?
A: 31.67 µg/L

Q: What about the Activity (Mus musculus [8]) of the same molecule?
A: Active

Q: What about the “VRT(t)” value [9] of the same molecule?
A: 0.75 hr2

Q: What about the Activity [10] of the same molecule?
A: 10.43 µmol/L

Q: And the Activity [11]?
A: Dose-dependent-effect

Q: And the inhibition (NIH3T3 [12])?
A: Active

Q: And the inhibition [13]?
A: inactive

Q: What about the Activity [14] of the same molecule?
A: 9.56 mmol/L

Q: And the Activity (Mus musculus [15])?
A: Active

Q: What about the inhibition at 10 µM (NIH3T3 [16]) of the same molecule?
A: 80.7%

Q: And the Activity [17]?
A: 6.51 mmol/L

Q: What about the Activity [18] of the same molecule?
A: Non-toxic

Q: What about the “VRT(t)” value [19] of the same molecule?
A: 0.569 hr2

Q: And the “VRT(t)” value [20]?
A: 0.53 hr2

Q: What about the MRT inf [21] of the same molecule?
A: 47.6 min

Q: And the Activity (NIH3T3 [22])?
A: Dose-dependent-effect; Compound More Potent Than Nintedanib

Q: And the viability at 24 h, 10 µM [23]?
A: 99.2%
